Experimental data from paper PMC5996997 (Journal of medicinal chemistry, 2017).
Entries after “also recorded” stand apart in the source; their conditions may differ.

Legend:
[1] = molecular target: T1, PDK2 (Homo sapiens, UniProt Q15119); assay: Isothermal titration calorimetry; conditions: ITC, binding to PDK2
[2] = molecular target: T1, PDK2
[3] = tested on: diet-induced obese (DIO) mice; assay: Oil Red O stain of liver slices; format: in vivo, C57BL/6J male mice (DIO); conditions: 40–45 mg/kg/day by mini pumps, two weeks
[4] = 17 at 30 mg/kg vs 2 at 70 mg/kg IP
[5] = tested on: diet-induced obese (DIO) mice; assay: Glucose tolerance test in DIO mice; format: in vivo, C57BL/6J male mice (DIO); conditions: 40–45 mg/kg/day, two weeks, p <0.05 at 20, 30, 60 and 120 min
[6] = tested on: PDC activity; assay: PDC activity in tissues of treated diet-induced obese mice; format: in vivo, C57BL/6J male mice (DIO); conditions: DIO mice, 40–45 mg/kg/day by osmotic mini-pumps, two weeks
[7] = tested on: phosphorylated E1α subunit (pE1); assay: Western blot of phosphorylated E1α in liver homogenates of treated DIO mice; format: in vivo, C57BL/6J male mice (DIO); conditions: 40–45 mg/kg/day by osmotic mini-pumps, two weeks

O=S(=O)(c1ccc(O)cc1O)N1Cc2ccc(O)cc2C1 [Compound 1, 4-((5-hydroxyisoindolin-2-yl)sulfonyl)benzene-1,3-diol]
–TΔS [1]: 5.54 kcal/mol

O=S(=O)(c1ccc(O)cc1O)N1Cc2cc(O)cc(O)c2C1 [Compound 2, 2-((2,4-dihydroxyphenyl)sulfonyl)isoindoline-4,6-diol]
–TΔS [1]: 6.57 kcal/mol

Nc1ccc2c(c1)CN(S(=O)(=O)c1ccc(O)cc1O)C2 [Compound 3]
fold higher IC50 than 1 ([2]; PDK2, relative to 1): 2 fold

O=S(=O)(c1ccc(O)cc1O)N1Cc2ccc(NC3CCNCC3)cc2C1 [Compound 5, 4-((5-(piperidin-4-ylamino)isoindolin-2-yl)sulfonyl)benzene-1,3-diol]
–TΔS [1]: 4.64 kcal/mol

NC(=O)C[C@H](N)C(=O)N1CCC(Nc2ccc3c(c2)CN(S(=O)(=O)c2ccc(O)cc2O)C3)CC1 [Compound 17, (S)-3-amino-4-(4-((2-((2,4-dihydroxyphenyl)sulfonyl)isoindolin-5-yl)amino)piperidin-1-yl)-4-oxobutanamide]
hepatic fat / steatosis (Oil Red O) [3]: drastically reduced hepatic steatosis; also recorded: microvesicular | fold higher AUClast in liver than 2 [4]: > 10 fold | fold lower AUClast in muscle than 2 [4]: > 10 fold | fold slower unit-time clearance (CL/F) in liver than 2 [4]: > 30 fold | glucose tolerance over vehicle-treated mice [5]: increases glucose tolerance | PDC activation in heart and muscle [6]: no PDC activation | increase of PDC activity in liver compared to the vehicle control [6]: about 6 fold | phosphorylation of the E1α subunit (pE1) in the liver homogenate [7]: decreased phosphorylation | gain in enthalpy change (ΔH) compared to 5 [1]: 3.4 kcal/mol | loss in entropy compared to 5 [1]: 2.7 kcal/mol | fold lower IC50 than 2 ([2]; PDK2, relative to 2): ~ 8 fold | fold better IC50 than 5 ([2]; PDK2, relative to 5): 3.4 fold
